Measurements taken from patent publication US10590140B2, “Tetrahydropyrimidodiazepine and dihydropyridodiazepine compounds for treating pain and pain related conditions” (ESTEVE PHARMACEUTICALS, S.A., priority 2016, dated 2020).

Biological target: human α2δ-1 subunit of Cav2.2 calcium channel (Homo sapiens (Human), UniProt P54289)
Test: Binding assay to human α2δ-1 subunit of Cav2.2 calcium channel ([3H]-Gabapentin)
Conditions: binding to α2δ-1, [3H]-Gabapentin; read-out: Ki (nM) α2δ-1
Summary of the method: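 Radioactivity on dried GF/C filters quantified by scintillation after filtration and three cold Tris-HCl (pH 7.4) washes. Incubation ran 60 min at 27° C with [3H]-gabapentin; 10 μM pregabalin gave nonspecific binding.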

Chain of human α2δ-1 subunit of Cav2.2 calcium channel (P54289 25-1103): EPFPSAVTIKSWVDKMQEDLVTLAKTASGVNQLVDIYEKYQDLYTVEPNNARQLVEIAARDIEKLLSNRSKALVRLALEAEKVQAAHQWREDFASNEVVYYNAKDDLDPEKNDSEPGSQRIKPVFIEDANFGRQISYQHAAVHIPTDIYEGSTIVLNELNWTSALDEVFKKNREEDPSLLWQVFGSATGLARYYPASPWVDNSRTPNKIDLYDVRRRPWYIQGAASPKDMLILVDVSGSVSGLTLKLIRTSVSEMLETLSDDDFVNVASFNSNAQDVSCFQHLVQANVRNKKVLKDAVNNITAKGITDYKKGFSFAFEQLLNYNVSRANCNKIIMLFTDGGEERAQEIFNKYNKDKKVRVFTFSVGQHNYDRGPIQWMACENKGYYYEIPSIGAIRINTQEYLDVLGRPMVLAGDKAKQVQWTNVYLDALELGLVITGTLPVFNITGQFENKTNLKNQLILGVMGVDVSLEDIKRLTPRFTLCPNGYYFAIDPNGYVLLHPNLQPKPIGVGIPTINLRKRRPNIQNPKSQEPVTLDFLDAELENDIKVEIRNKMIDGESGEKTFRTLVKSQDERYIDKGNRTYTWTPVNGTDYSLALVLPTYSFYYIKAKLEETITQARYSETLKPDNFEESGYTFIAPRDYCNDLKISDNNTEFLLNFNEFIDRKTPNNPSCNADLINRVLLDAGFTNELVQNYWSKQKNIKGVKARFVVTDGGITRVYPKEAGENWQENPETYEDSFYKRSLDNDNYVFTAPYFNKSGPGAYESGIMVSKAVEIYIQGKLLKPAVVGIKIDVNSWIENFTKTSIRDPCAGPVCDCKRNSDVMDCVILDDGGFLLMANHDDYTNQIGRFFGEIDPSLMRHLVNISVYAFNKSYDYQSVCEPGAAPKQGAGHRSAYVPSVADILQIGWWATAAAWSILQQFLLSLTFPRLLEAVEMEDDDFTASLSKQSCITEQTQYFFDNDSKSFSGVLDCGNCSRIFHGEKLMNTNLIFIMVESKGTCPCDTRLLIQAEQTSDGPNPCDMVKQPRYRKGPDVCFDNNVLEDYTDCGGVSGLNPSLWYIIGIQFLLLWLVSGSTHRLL

| Structure (SMILES) | Ki |
| --- | --- |
| CSc1ncc2c(n1)N(C)CCN(c1ccc(O[Si](C)(C)C(C)(C)C)cc1)C2=O [Example 38, 6-(4-((tert-butyldimethyl-silyl)oxy)phenyl)-9-methyl-2-(methylthio)-6,7,8,9-tetrahydro-5H-pyrimido[4,5-e][1,4]diazepin-5-one] | > 3000 nM |
| CCNc1ncc2c(n1)N(C)CCN(c1cccc(-n3cc(CN(C)C(=O)OC(C)(C)C)cn3)c1)C2=O [Example 122, tert-butyl ((1-(3-(2-(ethylamino)-9-methyl-5-oxo-5,7,8,9-tetrahydro-6H-pyrimido[4,5-e][1,4]diazepin-6-yl)phenyl)-1H-pyrazol-4-yl)methyl)(methyl) carbamate] | > 3000 nM |
| CSc1ncc2c(n1)N(C)CCN(c1cccc(OCCN(C)C(=O)OC(C)(C)C)c1)C2=O [Example 22, tert-butyl methyl(2-(3-(9-methyl-2-(methylthio)-5-oxo-5,7,8,9-tetrahydro-6H-pyrimido[4,5-e][1,4]diazepin-6-yl)phenoxy)ethyl) carbamate] | > 3000 nM |
| CCNc1ncc2c(n1)N(C)CCN(c1cccc(OC)c1)C2=O [Example 109, 2-(ethylamino)-6-(3-methoxyphenyl)-9-methyl-6,7,8,9-tetrahydro-5H-pyrimido[4,5-e][1,4]diazepin-5-one] | 500 to 3000 nM |
| CSc1ncc2c(n1)N(C)CCN(c1ccc(OC(CN(C)C(=O)OC(C)(C)C)c3ccccc3)cc1)C2=O (stereo not shown) [Example 8, tert-butyl methyl(2-(4-(9-methyl-2-(methylthio)-5-oxo-5,7,8,9-tetrahydro-6H-pyrimido[4,5-e][1,4]diazepin-6-yl)phenoxy)-2-phenylethyl) carbamate] | > 3000 nM |
| CCNc1ncc2c(n1)N(C)CCN(c1cccc(CCCN(C)C(=O)OC(C)(C)C)c1)C2=O [Example 91, tert-butyl (3-(3-(2-(ethylamino)-9-methyl-5-oxo-5,7,8,9-tetrahydro-6H-pyrimido[4,5-e][1,4]diazepin-6-yl)phenyl)propyl) (methyl)carbamate] | > 3000 nM |
| CCNc1ncc2c(n1)N(C)CCN(c1cccc(-n3cnc(CN(C)C(=O)OC(C)(C)C)c3)c1)C2=O [Example 123, tert-butyl ((1-(3-(2-(ethylamino)-9-methyl-5-oxo-5,7,8,9-tetrahydro-6H-pyrimido[4,5-e][1,4]diazepin-6-yl)phenyl)-1H-imidazol-4-yl)methyl)(methyl) carbamate] | > 3000 nM |
| CSc1ncc2c(n1)N(C)CCN(c1cccc(CN(C)C(=O)OC(C)(C)C)c1)C2=O [Example 26, tert-butyl methyl(3-(9-methyl-2-(methylthio)-5-oxo-5,7,8,9-tetrahydro-6H-pyrimido[4,5-e][1,4]diazepin-6-yl)benzyl) carbamate] | > 3000 nM |
| CCNc1ncc2c(n1)N(C)CCN(c1ccc(OC)cc1)C2=O [Example 114, 2-(ethylamino)-6-(4-methoxyphenyl)-9-methyl-6,7,8,9-tetrahydro-5H-pyrimido[4,5-e][1,4]diazepin-5-one] | > 3000 nM |
| CSc1ncc2c(n1)N(C)CCN(c1cccc(-n3cnc(CN(C)C(=O)OC(C)(C)C)c3)c1)C2=O [Example 46, tert-butyl methyl((1-(3-(9-methyl-2-(methylthio)-5-oxo-5,7,8,9-tetrahydro-6H-pyrimido[4,5-e][1,4]diazepin-6-yl)phenyl)-1H-imidazol-4-yl)methyl) carbamate] | > 3000 nM |
| CSc1ncc2c(n1)N(C)CCN(c1cccc(Br)c1)C2=O [Example 35, 6-(3-bromophenyl)-9-methyl-2-(methylthio)-6,7,8,9-tetrahydro-5H-pyrimido[4,5-e][1,4]diazepin-5-one] | > 3000 nM |

Second part, the compound after the results:

| Ki | Structure (SMILES) |
| --- | --- |
| 500 to 3000 nM | CCNc1ncc2c(n1)N(C)CCN(c1cccc(-n3cc(CN4CCC(c5ccccc5)(N(C)C)CC4)cn3)c1)C2=O [Example 294, 6-(3-(4-((4-(dimethylamino)-4-phenylpiperidin-1-yl)methyl)-1H-pyrazol-1-yl)phenyl)-2-(ethylamino)-9-methyl-6,7,8,9-tetrahydro-5H-pyrimido[4,5-e] [1,4]diazepin-5-one] |
| 500 to 3000 nM | CCNc1ncc2c(n1)N(C)CCN(c1cccc(CNC)c1)C2=O [Example 174, 2-(ethylamino)-9-methyl-6-(3-((methylamino)methyl)phenyl)-6,7,8,9-tetrahydro-5H-pyrimido[4,5-e][1,4]diazepin-5-one] |
| 500 to 3000 nM | CCNc1ncc2c(n1)N(C)CCN(c1cccc(Br)c1)C2=O [Example 311, 6-(3-bromophenyl)-2-(ethylamino)-9-methyl-6,7,8,9-tetrahydro-5H-pyrimido[4,5-e][1,4]diazepin-5-one] |
| > 3000 nM | CN(CCC(OCc1cccc(N2CCN(C)c3nc(O)ncc3C2=O)c1)c1cccs1)C(=O)OC(C)(C)C (stereo not shown) [Example 141, tert-butyl (3-((3-(2-hydroxy-9-methyl-5-oxo-5,7,8,9-tetrahydro-6H-pyrimido[4,5-e][1,4]diazepin-6-yl)benzyl)oxy)-3-(thiophen-2-yl)propyl)(methyl)carbamate] |
| < 100 nM | CNCC[C@H](Oc1ccc(CN2CCN(C)c3nc(OC)ncc3C2=O)c(F)c1)c1cccs1 [Example 401, (S)-6-(2-fluoro-4-(3-(methylamino)-1-(thiophen-2-yl)propoxy)benzyl)-2-methoxy-9-methyl-6,7,8,9-tetrahydro-5H-pyrimido[4,5-e][1,4]diazepin-5-one] |
| > 3000 nM | COc1ncc2c(n1)N(C)CCN(c1cccc(COC(CCN(C)C(=O)OC(C)(C)C)c3cccs3)c1)C2=O (stereo not shown) [Example 139, tert-butyl (3-((3-(2-methoxy-9-methyl-5-oxo-5,7,8,9-tetrahydro-6H-pyrimido[4,5-e][1,4]diazepin-6-yl)benzyl)oxy)-3-(thiophen-2-yl)propyl)(methyl)carbamate] |
| > 3000 nM | CCNc1ncc2c(n1)N(C)CCN(c1cccc(OC(CCN(C)C(=O)OC(C)(C)C)c3cccnc3)c1)C2=O (stereo not shown) [Example 129, tert-butyl (3-(3-(2-(ethylamino)-9-methyl-5-oxo-5,7,8,9-tetrahydro-6H-pyrimido[4,5-e][1,4]diazepin-6-yl)phenoxy)-3-(pyridin-3-yl)propyl)(methyl) carbamate] |
| 100 to 500 nM | CCNc1ncc2c(n1)N(C)CCN(c1cccc(-n3cc(CN4CCC(c5ccccc5)(N(C)C)CC4)nn3)c1)C2=O [Example 291, 6-(3-(4-((4-(dimethylamino)-4-phenylpiperidin-1-yl)methyl)-1H-1,2,3-triazol-1-yl)phenyl)-2-(ethylamino)-9-methyl-6,7,8,9-tetrahydro-5H-pyrimido[4,5-e] [1,4]diazepin-5-one] |
| > 3000 nM | CCNc1ncc2c(n1)N(C)CCN(c1cccc(OC(CN)c3ccccc3)c1)C2=O (stereo not shown) [Example 156, 6-(3-(2-amino-1-phenylethoxy)phenyl)-2-(ethylamino)-9-methyl-6,7,8,9-tetrahydro-5H-pyrimido[4,5-e][1,4]diazepin-5-one] |
| 500 to 3000 nM | CNCCC(Oc1ccc(CN2CCN(C)c3nc(OC)ncc3C2=O)cc1)c1ccccc1F (stereo not shown) [Example 376, 6-(4-(1-(2-fluorophenyl)-3-(methylamino)propoxy)benzyl)-2-methoxy-9-methyl-6,7,8,9-tetrahydro-5H-pyrimido[4,5-e][1,4]diazepin-5-one] |
| > 3000 nM | CCNc1ncc2c(n1)N(C)CCN(Cc1ccccc1COC(CCNC)c1ccccc1)C2=O (stereo not shown) [Example 404, 2-(ethylamino)-9-methyl-6-(2-((3-(methylamino)-1-phenylpropoxy)methyl)benzyl)-6,7,8,9-tetrahydro-5H-pyrimido[4,5-e][1,4]diazepin-5-one] |
